Legend:
potassium arsenate = compound: O=[As]([O-])(O)O.[K+] [potassium arsenate]; test: thermal stability z-score vs DMSO; higher = more thermally stabilized by treatment; details: HeLa; arsenate concentration 1 mM
Method: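 Cellular thermal proteome profiling in HeLa cells treated with 1 mM arsenate for 1 h (DMSO pretreatment), heated to ten temperatures (37-66.3 °C). Soluble protein was quantified by TMT mass spectrometry relative to DMSO controls; the thermal stability score was transformed to a z-score; mean of n = 3 experiments.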

lipoamide = compound: NC(=O)CCCCC1CCSS1 [lipoamide]; test: as above; details: HeLa, lipoamide concentration 100 µM
Method: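 Cellular thermal proteome profiling in HeLa cells. Cells were treated with 100 µM lipoamide for 1 h, with or without 1 mM arsenate for a further 1 h, then heated to ten temperatures (37-66.3 °C), and soluble protein was quantified by TMT mass spectrometry relative to 0.1% DMSO controls. The thermal stability score (sum of log2 fold changes minus the abundance score) was transformed to a z-score; mean of n = 3 experiments.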

[1] = arsenate co-treatment: 1 mM arsenate 1 h
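Also: each temperature applied for 3 min, abundance score taken as mean log2 fold change at the two lowest temperatures, z-score obtained by mean subtraction and division by SD.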

Sequence of UniProt O95363 (O95363 whole entry): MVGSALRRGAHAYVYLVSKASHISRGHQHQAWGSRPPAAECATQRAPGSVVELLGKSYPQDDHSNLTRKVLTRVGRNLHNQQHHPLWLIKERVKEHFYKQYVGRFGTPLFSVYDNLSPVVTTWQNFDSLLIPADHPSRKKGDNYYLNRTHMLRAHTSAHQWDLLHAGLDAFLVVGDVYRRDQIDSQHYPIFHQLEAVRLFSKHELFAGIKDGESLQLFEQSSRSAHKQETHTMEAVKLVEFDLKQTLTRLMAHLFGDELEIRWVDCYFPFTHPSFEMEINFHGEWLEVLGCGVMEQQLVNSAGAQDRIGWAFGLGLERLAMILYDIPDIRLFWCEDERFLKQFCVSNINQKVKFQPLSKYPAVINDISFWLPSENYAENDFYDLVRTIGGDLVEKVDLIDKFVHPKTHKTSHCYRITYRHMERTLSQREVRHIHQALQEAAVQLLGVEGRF
Sequence of UniProt Q15121 (Q15121 whole entry): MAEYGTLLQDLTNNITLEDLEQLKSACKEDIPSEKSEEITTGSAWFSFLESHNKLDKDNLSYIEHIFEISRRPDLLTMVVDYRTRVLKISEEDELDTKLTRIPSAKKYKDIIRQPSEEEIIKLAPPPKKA
Sequence of UniProt Q14554 (Q14554 whole entry): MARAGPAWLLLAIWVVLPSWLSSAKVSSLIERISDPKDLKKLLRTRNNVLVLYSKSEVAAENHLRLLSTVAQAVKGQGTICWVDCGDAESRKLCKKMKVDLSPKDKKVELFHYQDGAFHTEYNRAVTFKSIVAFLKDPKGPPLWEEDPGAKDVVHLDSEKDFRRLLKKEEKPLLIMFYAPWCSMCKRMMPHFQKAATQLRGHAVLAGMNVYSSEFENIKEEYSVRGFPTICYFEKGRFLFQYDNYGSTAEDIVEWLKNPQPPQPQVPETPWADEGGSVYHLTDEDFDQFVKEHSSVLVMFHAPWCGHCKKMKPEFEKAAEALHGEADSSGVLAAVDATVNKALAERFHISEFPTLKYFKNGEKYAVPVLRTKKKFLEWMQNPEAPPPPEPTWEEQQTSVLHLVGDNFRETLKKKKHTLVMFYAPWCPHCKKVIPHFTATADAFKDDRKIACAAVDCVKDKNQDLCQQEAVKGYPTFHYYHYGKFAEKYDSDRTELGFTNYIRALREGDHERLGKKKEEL
Sequence of UniProt O43819 (O43819 whole entry): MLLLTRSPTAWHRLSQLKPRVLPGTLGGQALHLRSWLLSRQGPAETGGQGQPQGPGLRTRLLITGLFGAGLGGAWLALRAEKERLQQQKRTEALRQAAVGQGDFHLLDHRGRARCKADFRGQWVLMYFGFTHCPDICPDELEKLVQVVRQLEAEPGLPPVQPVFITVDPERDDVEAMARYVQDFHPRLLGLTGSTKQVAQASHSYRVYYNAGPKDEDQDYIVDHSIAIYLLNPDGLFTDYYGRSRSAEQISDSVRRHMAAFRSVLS
Sequence of UniProt Q8IV50 (Q8IV50 whole entry): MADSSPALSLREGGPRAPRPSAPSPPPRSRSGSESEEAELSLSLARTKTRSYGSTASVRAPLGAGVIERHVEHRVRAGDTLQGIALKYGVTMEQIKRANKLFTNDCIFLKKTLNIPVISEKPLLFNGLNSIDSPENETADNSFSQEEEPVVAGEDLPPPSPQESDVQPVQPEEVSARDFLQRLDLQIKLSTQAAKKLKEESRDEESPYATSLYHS
Sequence of UniProt Q9BVK6 (Q9BVK6 whole entry): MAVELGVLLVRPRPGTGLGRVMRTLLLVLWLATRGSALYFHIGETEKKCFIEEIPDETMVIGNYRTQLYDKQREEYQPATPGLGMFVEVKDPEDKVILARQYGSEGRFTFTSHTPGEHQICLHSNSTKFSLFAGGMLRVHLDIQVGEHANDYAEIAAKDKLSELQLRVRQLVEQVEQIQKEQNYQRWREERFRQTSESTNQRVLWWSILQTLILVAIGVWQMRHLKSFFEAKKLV
Sequence of UniProt Q9H7Z7 (Q9H7Z7 whole entry): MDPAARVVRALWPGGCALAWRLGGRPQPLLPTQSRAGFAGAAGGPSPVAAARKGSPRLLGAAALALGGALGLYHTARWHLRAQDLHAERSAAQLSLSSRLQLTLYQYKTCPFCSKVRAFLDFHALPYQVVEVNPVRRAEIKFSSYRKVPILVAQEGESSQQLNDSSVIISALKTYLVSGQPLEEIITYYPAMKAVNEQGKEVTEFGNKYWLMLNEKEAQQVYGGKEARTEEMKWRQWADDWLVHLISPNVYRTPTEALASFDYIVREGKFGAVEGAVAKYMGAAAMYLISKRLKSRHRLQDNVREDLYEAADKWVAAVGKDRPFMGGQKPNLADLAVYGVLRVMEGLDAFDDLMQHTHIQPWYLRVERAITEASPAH
Sequence of UniProt P62333 (P62333 whole entry): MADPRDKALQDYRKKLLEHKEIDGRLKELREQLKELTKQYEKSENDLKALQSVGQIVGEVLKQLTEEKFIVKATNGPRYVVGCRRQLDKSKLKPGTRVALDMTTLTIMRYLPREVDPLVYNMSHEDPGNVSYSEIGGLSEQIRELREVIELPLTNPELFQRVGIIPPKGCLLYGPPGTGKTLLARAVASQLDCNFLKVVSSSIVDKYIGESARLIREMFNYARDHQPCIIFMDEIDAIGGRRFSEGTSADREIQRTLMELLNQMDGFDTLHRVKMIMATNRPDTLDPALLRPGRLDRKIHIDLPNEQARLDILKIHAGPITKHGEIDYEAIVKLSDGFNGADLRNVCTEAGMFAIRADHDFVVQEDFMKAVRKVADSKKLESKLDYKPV
Sequence of UniProt P48067 (P48067 whole entry): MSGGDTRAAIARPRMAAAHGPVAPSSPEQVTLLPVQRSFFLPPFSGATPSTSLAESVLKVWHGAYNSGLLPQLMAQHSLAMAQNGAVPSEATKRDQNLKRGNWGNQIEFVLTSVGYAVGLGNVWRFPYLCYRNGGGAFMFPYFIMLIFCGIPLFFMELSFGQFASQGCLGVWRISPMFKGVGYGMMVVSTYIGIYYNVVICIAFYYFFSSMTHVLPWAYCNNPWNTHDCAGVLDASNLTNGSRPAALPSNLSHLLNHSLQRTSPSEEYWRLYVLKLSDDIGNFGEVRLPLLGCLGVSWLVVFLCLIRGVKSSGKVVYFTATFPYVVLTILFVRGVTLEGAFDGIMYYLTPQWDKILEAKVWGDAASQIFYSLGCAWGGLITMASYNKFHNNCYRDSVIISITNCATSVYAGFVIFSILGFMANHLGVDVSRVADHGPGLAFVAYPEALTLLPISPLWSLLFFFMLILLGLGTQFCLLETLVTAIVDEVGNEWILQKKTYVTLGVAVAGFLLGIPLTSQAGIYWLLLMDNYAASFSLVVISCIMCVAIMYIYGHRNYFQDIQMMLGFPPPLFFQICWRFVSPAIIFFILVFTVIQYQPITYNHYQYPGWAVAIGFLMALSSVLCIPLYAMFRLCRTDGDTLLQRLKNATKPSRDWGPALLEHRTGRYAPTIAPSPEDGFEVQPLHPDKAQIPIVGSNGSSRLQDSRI
Sequence of UniProt Q6Y288 (Q6Y288 whole entry): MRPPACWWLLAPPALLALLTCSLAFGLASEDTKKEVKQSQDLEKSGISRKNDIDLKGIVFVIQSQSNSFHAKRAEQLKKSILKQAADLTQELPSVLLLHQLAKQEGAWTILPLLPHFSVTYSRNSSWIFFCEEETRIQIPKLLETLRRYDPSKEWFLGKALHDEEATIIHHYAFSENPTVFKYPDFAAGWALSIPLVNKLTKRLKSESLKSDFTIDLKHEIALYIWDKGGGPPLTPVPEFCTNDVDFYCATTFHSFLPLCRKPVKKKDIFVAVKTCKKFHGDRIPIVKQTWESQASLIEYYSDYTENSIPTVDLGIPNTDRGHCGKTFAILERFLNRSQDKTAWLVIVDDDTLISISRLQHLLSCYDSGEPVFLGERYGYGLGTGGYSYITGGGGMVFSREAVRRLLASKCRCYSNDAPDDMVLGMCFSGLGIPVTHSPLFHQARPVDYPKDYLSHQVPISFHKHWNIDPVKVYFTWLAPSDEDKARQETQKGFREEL
Sequence of UniProt Q9H477 (Q9H477 whole entry): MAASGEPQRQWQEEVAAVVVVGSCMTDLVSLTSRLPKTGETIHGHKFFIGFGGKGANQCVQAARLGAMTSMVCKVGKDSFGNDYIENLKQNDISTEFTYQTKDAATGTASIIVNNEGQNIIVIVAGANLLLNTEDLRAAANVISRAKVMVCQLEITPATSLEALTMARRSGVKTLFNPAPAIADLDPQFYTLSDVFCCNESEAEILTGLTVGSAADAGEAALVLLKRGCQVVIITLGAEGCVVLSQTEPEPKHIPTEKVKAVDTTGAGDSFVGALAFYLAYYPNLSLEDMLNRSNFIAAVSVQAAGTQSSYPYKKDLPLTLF
Sequence of UniProt P36507 (P36507 whole entry): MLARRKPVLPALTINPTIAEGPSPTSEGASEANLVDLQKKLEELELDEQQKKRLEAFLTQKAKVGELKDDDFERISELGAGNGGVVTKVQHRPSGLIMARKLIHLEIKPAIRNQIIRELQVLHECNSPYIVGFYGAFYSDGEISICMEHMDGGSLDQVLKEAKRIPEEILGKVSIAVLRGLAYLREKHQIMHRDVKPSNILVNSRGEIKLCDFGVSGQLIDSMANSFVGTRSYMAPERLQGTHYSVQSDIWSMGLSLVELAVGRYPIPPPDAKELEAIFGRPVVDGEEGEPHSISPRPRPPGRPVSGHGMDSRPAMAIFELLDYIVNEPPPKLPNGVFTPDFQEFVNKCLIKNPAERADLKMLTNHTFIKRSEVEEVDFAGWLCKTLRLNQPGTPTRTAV
Sequence of UniProt Q9UK45 (Q9UK45 whole entry): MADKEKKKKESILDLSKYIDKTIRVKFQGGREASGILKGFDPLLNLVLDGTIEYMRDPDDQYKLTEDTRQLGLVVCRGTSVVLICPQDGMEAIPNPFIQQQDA
Sequence of UniProt Q9UBK9 (Q9UBK9 whole entry): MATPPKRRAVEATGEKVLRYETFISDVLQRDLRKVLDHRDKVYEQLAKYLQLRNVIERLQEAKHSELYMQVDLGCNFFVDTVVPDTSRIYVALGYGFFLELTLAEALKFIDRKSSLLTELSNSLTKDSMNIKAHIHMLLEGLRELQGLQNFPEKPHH

In the case of SLC6A9 (UniProt P48067), the thermal stability z-score (potassium arsenate) is reported as -0.636, the thermal stability z-score (lipoamide; [1]) is reported as -0.26 and the thermal stability z-score (lipoamide; arsenate co-treatment: none) is reported as -0.8.

Work on ELMO2 (UniProt Q96JJ3) yielded a thermal stability z-score (potassium arsenate) of 0.457, a thermal stability z-score (lipoamide; [1]) of -0.114 and a thermal stability z-score (lipoamide; arsenate co-treatment: none) of 0.245.

Target CTPS1 (UniProt P17812) has a thermal stability z-score (potassium arsenate) of -0.228, a thermal stability z-score (lipoamide; [1]) of -0.159 and a thermal stability z-score (lipoamide; arsenate co-treatment: none) of -0.286.

In the case of DNM2 (UniProt P50570), the thermal stability z-score (potassium arsenate) is reported as 0.304, the thermal stability z-score (lipoamide; [1]) is reported as -0.494 and the thermal stability z-score (lipoamide; arsenate co-treatment: none) is reported as -0.287.

SNX30 (UniProt Q5VWJ9) was tested, and the thermal stability z-score (potassium arsenate) was -0.275, the thermal stability z-score (lipoamide; [1]) was -0.254 and the thermal stability z-score (lipoamide; arsenate co-treatment: none) was 0.144.

In the case of TAF2 (UniProt Q6P1X5), the thermal stability z-score (potassium arsenate) is reported as -0.179, the thermal stability z-score (lipoamide; [1]) is reported as -0.03 and the thermal stability z-score (lipoamide; arsenate co-treatment: none) is reported as -0.0592.

For PDIA5 (UniProt Q14554), the thermal stability z-score (potassium arsenate) was 0.611, the thermal stability z-score (lipoamide; [1]) was -3.58 and the thermal stability z-score (lipoamide; arsenate co-treatment: none) was -2.41.

MAP2K2 (UniProt P36507) showed a thermal stability z-score (potassium arsenate) of 0.0169, a thermal stability z-score (lipoamide; [1]) of -0.441 and a thermal stability z-score (lipoamide; arsenate co-treatment: none) of -0.022.

JMJD6 (UniProt Q6NYC1) gave a thermal stability z-score (potassium arsenate) of 0.606, a thermal stability z-score (lipoamide; [1]) of -0.363 and a thermal stability z-score (lipoamide; arsenate co-treatment: none) of 0.15.

MMS19 (UniProt Q96T76) gave a thermal stability z-score (potassium arsenate) of -0.949, a thermal stability z-score (lipoamide; [1]) of -0.784 and a thermal stability z-score (lipoamide; arsenate co-treatment: none) of -1.16.

AQR (UniProt O60306) gave a thermal stability z-score (potassium arsenate) of -0.643, a thermal stability z-score (lipoamide; [1]) of 0.37 and a thermal stability z-score (lipoamide; arsenate co-treatment: none) of 0.297.

Target LSM7 (UniProt Q9UK45) has a thermal stability z-score (potassium arsenate) of -0.425, a thermal stability z-score (lipoamide; [1]) of 0.466 and a thermal stability z-score (lipoamide; arsenate co-treatment: none) of 0.456.

For MRTO4 (UniProt Q9UKD2), the thermal stability z-score (potassium arsenate) was 0.036, the thermal stability z-score (lipoamide; [1]) was 0.246 and the thermal stability z-score (lipoamide; arsenate co-treatment: none) was 0.308.

TMED9 (UniProt Q9BVK6) was tested, and the thermal stability z-score (potassium arsenate) was 0.151, the thermal stability z-score (lipoamide; [1]) was -1.24 and the thermal stability z-score (lipoamide; arsenate co-treatment: none) was -1.5.

CDK5 (UniProt Q00535) gave a thermal stability z-score (potassium arsenate) of 0.0671, a thermal stability z-score (lipoamide; [1]) of -0.0682 and a thermal stability z-score (lipoamide; arsenate co-treatment: none) of 0.212.

CDK6 (UniProt Q00534) gave a thermal stability z-score (potassium arsenate) of 0.123, a thermal stability z-score (lipoamide; [1]) of -0.218 and a thermal stability z-score (lipoamide; arsenate co-treatment: none) of 0.136.

UXT (UniProt Q9UBK9) gave a thermal stability z-score (potassium arsenate) of 0.352, a thermal stability z-score (lipoamide; [1]) of 0.497 and a thermal stability z-score (lipoamide; arsenate co-treatment: none) of 0.378.

In the case of ALDH5A1 (UniProt P51649), the thermal stability z-score (potassium arsenate) is reported as 0.302, the thermal stability z-score (lipoamide; [1]) is reported as 0.0808 and the thermal stability z-score (lipoamide; arsenate co-treatment: none) is reported as -0.136.

In the case of PSMC6 (UniProt P62333), the thermal stability z-score (potassium arsenate) is reported as -0.23, the thermal stability z-score (lipoamide; [1]) is reported as 0.467 and the thermal stability z-score (lipoamide; arsenate co-treatment: none) is reported as 0.219.

FANCB (UniProt Q8NB91) gave a thermal stability z-score (potassium arsenate) of -1.04, a thermal stability z-score (lipoamide; [1]) of -0.147 and a thermal stability z-score (lipoamide; arsenate co-treatment: none) of -0.547.

PEA15 (UniProt Q15121) was tested, and the thermal stability z-score (potassium arsenate) was 0.716, the thermal stability z-score (lipoamide; [1]) was 0.388 and the thermal stability z-score (lipoamide; arsenate co-treatment: none) was 0.243.

Target PEX14 (UniProt O75381) has a thermal stability z-score (potassium arsenate) of -0.269, a thermal stability z-score (lipoamide; [1]) of -0.54 and a thermal stability z-score (lipoamide; arsenate co-treatment: none) of -0.596.

In the case of LRCH1 (UniProt Q9Y2L9), the thermal stability z-score (potassium arsenate) is reported as 0.494, the thermal stability z-score (lipoamide; [1]) is reported as 0.0183 and the thermal stability z-score (lipoamide; arsenate co-treatment: none) is reported as 0.0529.

In the case of B3GLCT (UniProt Q6Y288), the thermal stability z-score (potassium arsenate) is reported as 0.968, the thermal stability z-score (lipoamide; [1]) is reported as -0.669 and the thermal stability z-score (lipoamide; arsenate co-treatment: none) is reported as -1.54.

VPS26A (UniProt O75436) was tested, and the thermal stability z-score (potassium arsenate) was 0.335, the thermal stability z-score (lipoamide; [1]) was 0.178 and the thermal stability z-score (lipoamide; arsenate co-treatment: none) was -0.395.

For FADD (UniProt Q13158), the thermal stability z-score (potassium arsenate) was 0.325, the thermal stability z-score (lipoamide; [1]) was -0.805 and the thermal stability z-score (lipoamide; arsenate co-treatment: none) was 0.901.

With PRKCD (UniProt Q05655) the thermal stability z-score (potassium arsenate) was -0.477, the thermal stability z-score (lipoamide; [1]) was -0.0378 and the thermal stability z-score (lipoamide; arsenate co-treatment: none) was 0.235.

For EAF1 (UniProt Q96JC9), the thermal stability z-score (potassium arsenate) was -0.000349, the thermal stability z-score (lipoamide; [1]) was 1.02 and the thermal stability z-score (lipoamide; arsenate co-treatment: none) was 0.0799.

Target KIFC3 (UniProt Q9BVG8) has a thermal stability z-score (potassium arsenate) of -0.23, a thermal stability z-score (lipoamide; [1]) of -0.119 and a thermal stability z-score (lipoamide; arsenate co-treatment: none) of -0.358.

For PTGES2 (UniProt Q9H7Z7), the thermal stability z-score (potassium arsenate) was 0.178, the thermal stability z-score (lipoamide; [1]) was -0.199 and the thermal stability z-score (lipoamide; arsenate co-treatment: none) was 0.0528.

With GRPEL2 (UniProt Q8TAA5) the thermal stability z-score (potassium arsenate) was 0.107, the thermal stability z-score (lipoamide; [1]) was -0.105 and the thermal stability z-score (lipoamide; arsenate co-treatment: none) was -0.123.

Target MRPS25 (UniProt P82663) has a thermal stability z-score (potassium arsenate) of 0.445, a thermal stability z-score (lipoamide; [1]) of 0.0295 and a thermal stability z-score (lipoamide; arsenate co-treatment: none) of 0.0583.

With RPP40 (UniProt O75818) the thermal stability z-score (potassium arsenate) was -1.15, the thermal stability z-score (lipoamide; [1]) was 0.705 and the thermal stability z-score (lipoamide; arsenate co-treatment: none) was -0.123.

With ADH5 (UniProt P11766) the thermal stability z-score (potassium arsenate) was -1.99, the thermal stability z-score (lipoamide; [1]) was 1.89 and the thermal stability z-score (lipoamide; arsenate co-treatment: none) was 0.761.

In the case of HAUS5 (UniProt O94927), the thermal stability z-score (potassium arsenate) is reported as -0.0216, the thermal stability z-score (lipoamide; [1]) is reported as 0.0805 and the thermal stability z-score (lipoamide; arsenate co-treatment: none) is reported as 0.111.

Work on RAP1GAP (UniProt P47736) yielded a thermal stability z-score (potassium arsenate) of 0.233, a thermal stability z-score (lipoamide; [1]) of -0.459 and a thermal stability z-score (lipoamide; arsenate co-treatment: none) of -0.26.

In the case of POLDIP2 (UniProt Q9Y2S7), the thermal stability z-score (potassium arsenate) is reported as 0.18, the thermal stability z-score (lipoamide; [1]) is reported as -0.119 and the thermal stability z-score (lipoamide; arsenate co-treatment: none) is reported as -0.241.

FARS2 (UniProt O95363) was tested, and the thermal stability z-score (potassium arsenate) was -0.701, the thermal stability z-score (lipoamide; [1]) was -0.386 and the thermal stability z-score (lipoamide; arsenate co-treatment: none) was -0.359.

With EIF4A3 (UniProt P38919) the thermal stability z-score (potassium arsenate) was -0.492, the thermal stability z-score (lipoamide; [1]) was -0.155 and the thermal stability z-score (lipoamide; arsenate co-treatment: none) was 0.154.

In the case of ACOT9 (UniProt Q9Y305), the thermal stability z-score (potassium arsenate) is reported as -0.344, the thermal stability z-score (lipoamide; [1]) is reported as 0.00609 and the thermal stability z-score (lipoamide; arsenate co-treatment: none) is reported as 0.283.

With PPIP5K1 (UniProt Q6PFW1) the thermal stability z-score (potassium arsenate) was 0.125, the thermal stability z-score (lipoamide; [1]) was -0.0717 and the thermal stability z-score (lipoamide; arsenate co-treatment: none) was 0.0968.

In the case of BPTF (UniProt Q12830), the thermal stability z-score (potassium arsenate) is reported as -0.181, the thermal stability z-score (lipoamide; [1]) is reported as 0.137 and the thermal stability z-score (lipoamide; arsenate co-treatment: none) is reported as 0.144.

Target MISP (UniProt Q8IVT2) has a thermal stability z-score (potassium arsenate) of -0.461, a thermal stability z-score (lipoamide; [1]) of 0.196 and a thermal stability z-score (lipoamide; arsenate co-treatment: none) of 0.386.

SCO2 (UniProt O43819) was tested, and the thermal stability z-score (potassium arsenate) was 0.538, the thermal stability z-score (lipoamide; [1]) was -0.169 and the thermal stability z-score (lipoamide; arsenate co-treatment: none) was 0.0623.

Work on NDC1 (UniProt Q9BTX1) yielded a thermal stability z-score (potassium arsenate) of 0.177, a thermal stability z-score (lipoamide; [1]) of 0.0748 and a thermal stability z-score (lipoamide; arsenate co-treatment: none) of 0.0634.

Target SH3BP5 (UniProt O60239) has a thermal stability z-score (potassium arsenate) of -0.00483, a thermal stability z-score (lipoamide; [1]) of 0.466 and a thermal stability z-score (lipoamide; arsenate co-treatment: none) of -0.17.

MRPL10 (UniProt Q7Z7H8) showed a thermal stability z-score (potassium arsenate) of 0.0461, a thermal stability z-score (lipoamide; [1]) of 0.127 and a thermal stability z-score (lipoamide; arsenate co-treatment: none) of 0.224.

SACM1L (UniProt Q9NTJ5) was tested, and the thermal stability z-score (potassium arsenate) was 0.448, the thermal stability z-score (lipoamide; [1]) was -0.145 and the thermal stability z-score (lipoamide; arsenate co-treatment: none) was -0.499.

For ZCCHC11 (UniProt Q5TAX3), the thermal stability z-score (potassium arsenate) was -0.424, the thermal stability z-score (lipoamide; [1]) was -0.38 and the thermal stability z-score (lipoamide; arsenate co-treatment: none) was -0.287.

KATNBL1 (UniProt Q9H079) showed a thermal stability z-score (potassium arsenate) of 0.427, a thermal stability z-score (lipoamide; [1]) of 0.226 and a thermal stability z-score (lipoamide; arsenate co-treatment: none) of 0.62.

LYSMD2 (UniProt Q8IV50) gave a thermal stability z-score (potassium arsenate) of 1.46, a thermal stability z-score (lipoamide; [1]) of 1.24 and a thermal stability z-score (lipoamide; arsenate co-treatment: none) of 0.886.

CDC37 (UniProt Q16543) gave a thermal stability z-score (potassium arsenate) of 0.222, a thermal stability z-score (lipoamide; [1]) of 0.928 and a thermal stability z-score (lipoamide; arsenate co-treatment: none) of 0.616.

UBL7 (UniProt Q96S82) was tested, and the thermal stability z-score (potassium arsenate) was 0.168, the thermal stability z-score (lipoamide; [1]) was 0.396 and the thermal stability z-score (lipoamide; arsenate co-treatment: none) was 0.433.

Work on SLC12A2 (UniProt P55011) yielded a thermal stability z-score (potassium arsenate) of -0.72, a thermal stability z-score (lipoamide; [1]) of -0.435 and a thermal stability z-score (lipoamide; arsenate co-treatment: none) of -0.195.

With RBKS (UniProt Q9H477) the thermal stability z-score (potassium arsenate) was 0.335, the thermal stability z-score (lipoamide; [1]) was -0.0153 and the thermal stability z-score (lipoamide; arsenate co-treatment: none) was -0.521.

Reference: the supplement of paper PMC12463676, “Small-molecule dissolution of stress granules by redox modulation benefits ALS models” (Nature Chemical Biology, 2025)
